Measurements: US20230390250A1, “MODULATION OF GLUCAGON-LIKE PEPTIDE 1 AND USES THEREOF” (priority 2020, published 2023)
“Also recorded” adds a separate entry of the source. Where two headings read alike, the source gives them in different places.

How the values were obtained:
GLUTag cells = test: GLP-1 secretion from cultured GLUTag cells treated with LPA and/or LPAR antagonist; assay type: cell-based, mouse; details: for effect of LPAR antagonist alone on GLP-1 levels: 10 μM antagonist alone, 2 h; for rescue of LPA-inhibited GLP-1 secretion by LPAR antagonist: 10 μM antagonist plus 2.5 μM LPA; for decrease in GLP-1 secretion / level caused by LPA (fraction): 2-2.5 h
Method: We have grown GLUTag cells in culture to test effects of various LPA species and the LPAR 1/2/3 inhibitor Ki-16425. GLUTag cells are a well characterized L-cell line derived from a mouse intestinal tumour, which have been widely used to study the regulation of GLP-1. Briefly, GLUTag cells were grown until 80-90% confluent. Complete medium, containing fetal bovine serum, was replaced with medium containing charcoal[…] dextran treated serum, which removes lipids and hormones that could interfere with testing. […] This indicates a direct inhibitory effect of LPA at physiologically relevant levels on GLP-1 secretion by L-cells, and the ability of a commercially available LPAR antagonist to prevent this.
Experimental Protocol. Briefly, GLUTag cells were grown until 70-80% confluent. Complete medium (low glucose DMEM), containing fetal bovine serum, was replaced with medium containing charcoal-dextran treated serum, which removes lipids and hormones that could interfere with testing. Cells were then treated with medium containing either DMSO as vehicle control (0.1% v/v), 2.5 μM LPA, 10 μM LPAR antagonist, or a combination of the LPA species and inhibitors. For cells treated with both LPA plus LPAR inhibitor: cells were pre-treated with LPA for 30 minutes and then 10 uM LPAR inhibitor was added to the respective wells for a further 2 hours. For cells treated with LPA only, or vehicle only, the total treatment time was 2.5 hours. For cells treated with antagonist only, the treatment time was 2 hours.

GLP-1 = test: Circulating GLP-1 in mice injected with LPA, with or without LPAR antagonist pre-treatment; assay type: in vivo; details: for rescue of the fall in blood GLP-1 levels caused by LPA: serum at 30 min (Examples 6, 8); for blood GLP-1 with antagonist alone versus vehicles: no LPA
Method: We injected mice i.p. with vehicle (10% DMSO in isotonic saline) or 50 mg/kg of 1-oleoyl-2-hydroxy-LPA. Half of the mice injected with LPA were pre-injected with 5 mg/kg Ki-16425 10 minutes prior to receiving LPA. Thirty minutes later, samples of blood were taken by cardiac puncture, and circulating active GLP-1 levels in plasma were analysed by enzyme linked immunosorbent assay.
The experimental protocol was as follows: • 1. Mice were administered an LPAR antagonist drug, either by oral gavage (for BMS986020, SARI 00842, AM966, AM095, or H2L51863030), or by i.p. injection (for Ki-16425, and LPA2-antagonistl) at the doses indicated in the table below. • 2. Control mice were administered only the vehicle (a 10% DMSO solution) given via the same route as the comparison drug was administered. • 3. Ten minutes later, mice were injected i.p. either with isotonic saline, or with 50 mg/kg LPA. • 4. Thirty minutes later, mice were euthanized by cervical dyslocation, and blood was collected from the heart for preparation of serum that was stored at −80C until it was analyzed for total GLP-1 concentration by ELISA assay using a GLP-1 enzyme immunoassay kit.

LPAR1 = LPAR1 (Homo sapiens, UniProt Q92633); details: cited from earlier work
LPAR1, sequence (Q92633 whole entry, species assumed): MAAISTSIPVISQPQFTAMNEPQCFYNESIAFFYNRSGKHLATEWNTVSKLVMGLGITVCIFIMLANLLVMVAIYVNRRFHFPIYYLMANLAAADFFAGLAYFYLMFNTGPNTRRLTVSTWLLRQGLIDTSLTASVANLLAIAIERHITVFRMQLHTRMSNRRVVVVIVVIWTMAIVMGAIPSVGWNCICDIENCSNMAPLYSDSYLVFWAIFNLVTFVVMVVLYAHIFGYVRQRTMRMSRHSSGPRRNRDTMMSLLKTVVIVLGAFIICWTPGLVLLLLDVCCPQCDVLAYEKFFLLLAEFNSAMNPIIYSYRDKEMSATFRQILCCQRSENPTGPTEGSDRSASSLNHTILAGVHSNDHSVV

LPAR2 = LPAR2 (Homo sapiens, UniProt Q9HBW0); details: cited from earlier work
LPAR2, sequence (Q9HBW0 whole entry, species assumed): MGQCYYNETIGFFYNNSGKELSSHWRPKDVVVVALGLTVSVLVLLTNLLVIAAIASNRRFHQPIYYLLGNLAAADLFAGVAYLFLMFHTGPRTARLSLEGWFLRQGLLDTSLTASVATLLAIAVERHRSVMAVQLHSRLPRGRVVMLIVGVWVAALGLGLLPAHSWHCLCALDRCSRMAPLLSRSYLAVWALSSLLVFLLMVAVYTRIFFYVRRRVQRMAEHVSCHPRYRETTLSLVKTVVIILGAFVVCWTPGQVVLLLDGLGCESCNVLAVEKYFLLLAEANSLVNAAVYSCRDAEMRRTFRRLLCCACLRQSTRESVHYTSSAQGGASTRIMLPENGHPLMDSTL

LPAR3 = target: T1, LPAR3 (Homo sapiens, UniProt Q9UBY5); details: cited from earlier work
T1 sequence (Q9UBY5 1-353): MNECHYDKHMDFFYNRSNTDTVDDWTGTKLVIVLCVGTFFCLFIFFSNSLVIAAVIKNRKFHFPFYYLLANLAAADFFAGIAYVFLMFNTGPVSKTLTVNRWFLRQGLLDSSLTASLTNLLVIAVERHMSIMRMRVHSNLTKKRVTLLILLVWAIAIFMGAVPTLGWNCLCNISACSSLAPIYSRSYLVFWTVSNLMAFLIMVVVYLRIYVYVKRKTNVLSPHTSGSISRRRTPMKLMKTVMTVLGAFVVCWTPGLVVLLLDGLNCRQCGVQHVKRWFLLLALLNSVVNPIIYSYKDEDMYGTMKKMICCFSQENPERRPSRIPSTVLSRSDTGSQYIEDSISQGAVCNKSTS

[1] = antagonist 30 mg/kg by gavage 10 min before 50 mg/kg 18:1-LPA i.p.

Row | SMILES | effect of LPAR antagonist alone on GLP-1 levels (GLUTag cells) | rescue of LPA-inhibited GLP-1 secretion by LPAR antagonist (GLUTag cells) | rescue of the fall in blood GLP-1 levels caused by LPA (GLP-1; [1]) | blood GLP-1 with antagonist alone versus vehicles (GLP-1; antagonist 30 mg/kg by gavage) | Ki (LPAR1) [µM] | IC50 (LPAR1; read-out: IC50 for LPAR1) [µM] | IC50 (LPAR2) [µM] | IC50 (LPAR3; read-out: IC50 for LPAR3) [µM] | decrease in GLP-1 secretion / level caused by LPA (fraction) (GLUTag cells; 2.5 μM LPA) | further results
1 | Cc1noc(-c2ccc(-c3ccc(C4(C(=O)O)CC4)cc3)cc2)c1NC(=O)O[C@H](C)c1ccccc1 [BMS-986020] | no significant effect | partially rescued | did not significantly rescue | indistinguishable from mice treated only with the vehicles | < 0.3 | < 0.3 | – | – | – | rescue of LPA-inhibited GLP-1 secretion by LPAR antagonist (GLUTag cells; listed as BMS986020): did significantly restore GLP-1 secretion
2 | Cc1csc2c(N[C@@H](C)CN3CCN(S(=O)(=O)c4ccc(Cl)c(Cl)c4)CC3)ncnc12 [LPA2-antagonist 1] | no significant effect | complete rescue | – | – | – | > 50 | 0.017 | > 50 | – | effect of LPAR antagonist alone on GLP-1 levels (GLUTag cells; listed as LPA2-antagonist): did not significantly reduce; rescue of LPA-inhibited GLP-1 secretion by LPAR antagonist (GLUTag cells; listed as LPA2-antagonist): significantly increased; rescue of the fall in blood GLP-1 levels caused by LPA (GLP-1; antagonist 5 mg/kg i.p. 10 min before 50 mg/kg 18:1-LPA i.p.): lack of rescue; rescue of the fall in blood GLP-1 levels caused by LPA (GLP-1; antagonist 5 mg/kg i.p. 10 min before 50 mg/kg 18:1-LPA i.p., listed as LPA2-antagonist): did not significantly rescue; blood GLP-1 with antagonist alone versus vehicles (GLP-1; antagonist 5 mg/kg i.p.): slightly, but significantly lower; IC50 (LPAR1; read-out: IC50 with LPAR1): > 50 µM; IC50 (LPAR3; read-out: IC50 with LPAR3): > 50 µM
3 | CCCCCCCCCCCCCCCCCC(=O)OCC(O)COP(=O)(O)O (stereo not shown) [1-stearoyl-2-hydroxy-LPA] | – | – | – | – | – | – | – | – | over 2/3 | –
4 | CCCCC/C=C\C/C=C\CCCCCCCC(=O)OCC(O)COP(=O)(O)O (stereo not shown) [18:2-LPA, 1-linoleoyl-2-hydroxy-LPA] | – | – | – | – | – | – | – | – | > 2/3 | effect of LPA on GLP-1 secretion (GLUTag cells; 2.5 μM LPA): decreases GLP-1 secretion; decrease in GLP-1 secretion / level caused by LPA (fraction) (GLUTag cells; 2.5 μM LPA, listed as 1-linoleoyl-2-hydroxy-LPA): over 2/3
5 | CCCCCCCCCCCCCCCC(=O)OCC(O)COP(=O)(O)O (stereo not shown) [1-palmitoyl-2-hydroxy-LPA] | – | – | – | – | – | – | – | – | over 2/3 | –
6 | O=C(O)/C=C\C(=O)Nc1ccc(Oc2cccc(Oc3ccc(NC(=O)/C=C\C(=O)O)cc3)c2)cc1 [H2L5186303] | no significant effect; also recorded: did not significantly affect | partially rescued | partially rescued; also recorded: partial rescue | slightly, but significantly lower | 27 | 27.4 | 0.0089 | 4.5 | – | Ki (LPAR2): 0.0089 µM; Ki (LPAR3): ~5 µM
